Data on two compounds can be found in patent US7655756B2 (Johnson & Johnson Pharmaceutical Research & Development, LLC, priority 2005, dated 2010).

“Also recorded” adds a separate entry of the source.

One assay addresses T1, ERRβ (Homo sapiens, UniProt O95718).
T1 sequence (O95718 208-432 limits assumed): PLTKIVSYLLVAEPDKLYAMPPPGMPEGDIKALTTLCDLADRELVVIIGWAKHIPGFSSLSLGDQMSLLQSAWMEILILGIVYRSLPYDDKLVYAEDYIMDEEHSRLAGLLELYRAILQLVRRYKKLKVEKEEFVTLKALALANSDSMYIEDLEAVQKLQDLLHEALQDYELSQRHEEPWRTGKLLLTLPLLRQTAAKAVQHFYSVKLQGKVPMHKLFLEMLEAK
The assay can be described thus: ThermoFluor thermal shift assay, ERRβ. In kind it is binding.

Assay [1] addresses T2, ligand binding domain of ERRγ (Homo sapiens, UniProt P62508).
T2 construct: 6His; made in house; host or cells: E. coli BL21(DE3)
T2 sequence (P62508 229-458): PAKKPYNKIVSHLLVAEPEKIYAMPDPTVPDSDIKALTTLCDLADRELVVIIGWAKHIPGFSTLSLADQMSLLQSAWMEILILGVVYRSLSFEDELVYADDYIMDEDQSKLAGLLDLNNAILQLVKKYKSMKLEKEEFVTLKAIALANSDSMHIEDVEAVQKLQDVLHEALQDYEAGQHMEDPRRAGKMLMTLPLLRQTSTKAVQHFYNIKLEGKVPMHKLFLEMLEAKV
The assay can be described thus: Thermal denaturation monitored by CD spectroscopy. To be noted: data not shown. The source says: Ligand binding energy adds directly to the ground state energy of a macromolecule and results in increased thermal stability. The degree of stabilization is proportional to the binding affinity of the ligand for the macromolecule.

A further assay deals with T3, ERα (Homo sapiens, UniProt P03372).
T3 sequence (P03372 1-595): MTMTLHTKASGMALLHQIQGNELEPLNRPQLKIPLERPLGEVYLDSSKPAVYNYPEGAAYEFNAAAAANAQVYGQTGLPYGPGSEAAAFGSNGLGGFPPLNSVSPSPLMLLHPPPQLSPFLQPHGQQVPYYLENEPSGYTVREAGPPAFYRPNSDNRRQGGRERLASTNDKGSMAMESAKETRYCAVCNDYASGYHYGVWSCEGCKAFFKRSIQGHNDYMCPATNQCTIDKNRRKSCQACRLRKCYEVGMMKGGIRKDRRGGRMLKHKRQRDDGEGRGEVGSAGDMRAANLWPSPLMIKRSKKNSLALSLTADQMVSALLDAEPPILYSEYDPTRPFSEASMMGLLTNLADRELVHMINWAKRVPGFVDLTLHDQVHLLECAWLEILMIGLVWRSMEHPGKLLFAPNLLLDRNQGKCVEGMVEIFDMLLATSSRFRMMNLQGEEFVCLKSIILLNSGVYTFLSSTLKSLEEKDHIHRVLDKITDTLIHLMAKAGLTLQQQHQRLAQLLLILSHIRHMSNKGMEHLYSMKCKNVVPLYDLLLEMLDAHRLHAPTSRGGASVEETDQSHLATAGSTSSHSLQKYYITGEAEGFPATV
As to the kind of experiment: ThermoFluor thermal shift assay, ERα. In kind it is binding. Background: Differential scanning fluorimetry follows unfolding on heating by fluorescence.

The target in the next assay is T4, ERRα (Homo sapiens, UniProt P11474).
T4 sequence (P11474 193-421 limits assumed): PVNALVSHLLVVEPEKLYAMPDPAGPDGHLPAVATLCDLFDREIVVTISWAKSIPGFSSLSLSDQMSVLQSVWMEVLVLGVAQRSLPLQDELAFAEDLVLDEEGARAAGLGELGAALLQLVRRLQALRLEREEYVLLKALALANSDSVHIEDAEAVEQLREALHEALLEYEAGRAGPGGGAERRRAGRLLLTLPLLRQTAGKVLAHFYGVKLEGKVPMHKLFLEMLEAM
As to the kind of experiment: ThermoFluor thermal shift assay, ERRα. In kind it is binding. To be noted: 100 μM test compound, 0.1 mg/mL protein, 25 mM HEPES pH 8.0, 25 μM ANS, 2% DMSO, Tm free protein 54.4 °C.

The test system of a further assay is pBIND-Gal4-ERRγ. As to the kind of experiment: Cell based reporter (trans-activation) assay in HEK293E cells. Conditions: luciferase reporter, Gal4-ERRγ and pACT-SRC2, 24 hours of compound treatment. A general note: A reporter such as luciferase makes a cellular process visible.
A further assay addresses T5, ERRγ-SRC2 complex (Homo sapiens, UniProt P62508).
T5 construct: made in house; host or cells: E. coli BL21(DE3) (ERRγ LBD)
T5 sequence (P62508 229-458): T2 sequence (P62508 229-458)
The assay can be described thus: TR-FRET co-activator recruitment assay. The assay is classed as biochemical. On the procedure: For FRET measurements, the reaction was buffered in 25 mM Tris pH 8, 2.5 mM Hepes, 20 mM KCl, 1 mM DTT, and 0.05 mg/mL delipidated BSA.
Time-resolved Fluorescence resonance energy transfer (FRET) experiments were performed to examine the functional response of ERRγ ligands.
For FRET measurements, the reaction was buffered in 25 mM Tris pH 8, 2.5 mM Hepes, 20 mM KCl, 1 mM DTT, and 0.05 mg/mL BSA (-lipids). […] Reactions were allowed to reach equilibrium at 25° C. for 4-18 hours before collecting data on the Analyst from LJL Biosystems (Molecular Devices Sunnyvale, Calif.). […] Dose response curves were fitted using a hyperbolic equation and the data reported is the average of three independent experiments.
A general note: In TR-FRET formats the signal depends on donor and acceptor labels being close together.

Another assay has as its target T6, ERRγ (Homo sapiens, UniProt P62508).
T6 construct: 6His; made in house; host or cells: E. coli BL21(DE3)
T6 sequence (P62508 229-458): T2 sequence (P62508 229-458)
The assay can be described thus: Isothermal titration calorimetry. In kind it is binding. The procedure:
The heat of interaction of the ligands with ERRγ molecules was measured by using the Omega titration calorimeter from Microcal Inc. In a typical titration, 1.4 mL of a 20 μM protein solution is titrated with a ligand solution of ˜0.4 mM concentration using a 100 μL syringe by ˜20 injections of 5-6 μL each. This syringe is also used to mix the reactants completely in the sample cell by rotating it at 400 rpm. For each injection, the area under the resulting peak is proportional to the heat of interaction, Q. Once this heat is corrected for the titrant dilution and normalized by the titrant solution concentration it becomes equal to the binding enthalpy, ΔHb, under nonsaturating conditions. The precision of the heat of each injection is about 0.5 μcal. One method of determining ΔHb is to average several intermediate peaks from the different sites. In addition to the binding enthalpies, one can obtain binding affinities, and overall stoichiometries of the complexes. The experimental calorimetric binding isotherm is the dependence of the total heat, Qr, (or dQrldX T) on the total concentration of ligand added, Xr. The above three parameters for each type of site are determined iteratively using the Marquardt algorithms as described previously.

The next assay concerns the target ERβ (Homo sapiens, UniProt Q92731). As to the kind of experiment: ThermoFluor thermal shift assay, ERβ. The assay is classed as binding. Conditions: 100 μM test compound; 0.1 mg/mL protein, 25 mM HEPES pH 8.0; Tm free protein 41.1 °C; read-out: ΔTm, thermal stabilization of ERβ.

ERβ, sequence (Q92731 whole entry, species assumed): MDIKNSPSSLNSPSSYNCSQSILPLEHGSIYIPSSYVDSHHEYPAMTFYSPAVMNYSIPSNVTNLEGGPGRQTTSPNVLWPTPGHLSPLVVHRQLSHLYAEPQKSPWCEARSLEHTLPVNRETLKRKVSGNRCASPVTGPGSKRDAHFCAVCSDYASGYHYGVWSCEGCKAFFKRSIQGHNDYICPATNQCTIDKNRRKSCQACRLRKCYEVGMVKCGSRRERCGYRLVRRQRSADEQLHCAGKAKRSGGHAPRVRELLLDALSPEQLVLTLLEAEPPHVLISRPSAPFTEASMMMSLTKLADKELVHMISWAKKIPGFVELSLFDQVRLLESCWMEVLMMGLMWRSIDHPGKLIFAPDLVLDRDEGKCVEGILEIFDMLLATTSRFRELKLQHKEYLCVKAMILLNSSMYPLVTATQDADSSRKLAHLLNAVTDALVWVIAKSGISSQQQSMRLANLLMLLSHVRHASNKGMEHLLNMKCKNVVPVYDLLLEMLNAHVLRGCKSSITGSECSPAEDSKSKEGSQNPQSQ
Experimental for pBIND-Gal4-ERRγ: A cell based reporter assay was used to determine the functional response of the ERRγ hits. Transfections were performed in HEK293E cells that were maintained in DMEM supplemented in glutamine and 10% FBS. Co-transfections of 4 μg of a luciferase reporter plasmid and 4 μg of each pBIND-Gal4-ERRγ and pACT-SRC2 plasmids per T-75 flask were done using Lipofectamine as per manufacturers instructions. Twenty-four hours post-transfection, the cells were seeded in 96-well plates at density of 50,000 cells per well in assay media (DMEM phenol free, 5% charcoal stripped FBS). […] After 24 hours of compound treatment, cells were lysed and treated with the Promega Dual-Glo system. Firefly Luciferase activity was read using a luminescence plate reader, and data were normalized against Renilla luciferase activity. Data were fitted using subroutines available from GraphPad.

In the case of 4-hydroxytamoxifen [4OHT], the “ΔTm, thermal stabilization of ERRβ” value at ERRβ (100 μM test compound, 0.1 mg/mL protein, 25 mM HEPES pH 8.0, Tm free protein 47.5 °C) amounted to 2.15 °C. Also, at ERRβ (calculated at reference temperature 25 °C from ΔTm of Table II, ΔHu 155 kcal/mol, read-out: Estimated dissociation constant, ERRβ), the Kd is 2.64 µM. Also, the “Thermal stabilization of ERRγ by loss of α-helicity (CD), in words” value in assay [1] is listed as “positive thermal stabilization”. Also, the ΔTm, thermal stabilization of ERα on ERα (pH 8) worked out at 17.1 °C. At ERRα, the “ΔTm, thermal stabilization of ERRα” value was −0.1 °C.
As usually defined, the ΔTm is the change in melting temperature against a reference sample. Regarding `CC(C)(c1ccc(O)cc1)c1ccc(O)cc1` [BPA, bisphenol A], the ΔTm at 100 µM is -0.1 °C at ERRβ (100 μM test compound, 0.1 mg/mL protein, 25 mM HEPES pH 8.0, Tm free protein 47.5 °C, read-out: ΔTm, thermal stabilization of ERRβ); 7.4 °C on ERβ; 4.4 °C at ERα (100 μM test compound, 0.1 mg/mL protein, 25 mM HEPES pH 8.0, Tm free protein 39.1 °C, read-out: ΔTm, thermal stabilization of ERα); 0 °C at ERRα (read-out: ΔTm, thermal stabilization of ERRα). For the same compound, the “Change in transcriptional activity in trans-activation cellular assay, in words” value with pBIND-Gal4-ERRγ is “not able to demonstrate”. Also, at ERRγ-SRC2 complex, the “Enhancement in the affinity of the receptor for co-activator peptide fragments, in words” value is reported as “not able to demonstrate”. Also, on ERRγ-SRC2 complex (6 nM ERRγ LBD, 6 nM GST-SRC-2 peptide), the “Displacement of co-activator peptide from ERRγ (antagonism), in words” value is given as “ineffective; also recorded: neither ligand displaced co-activator peptide”. Moreover, the Kd at ERRγ (20 μM protein titrated with ~0.4 mM ligand, read-out: Binding affinity by isothermal titration calorimetry) was determined as 0.07 µM. The “Binding enthalpy ΔHb” value at ERRγ (isothermal titration calorimetry) was roughly -21 kcal/mol.
